In patent US12492373B2, “Production method for nerve tissue” (Racthera Co., Ltd., priority 2014, dated 2025):

Assays:
Format in all cases: cell-based
[1] = tested on: human iPS cells (1231A3 strain); experiment: Form of cell aggregate in suspension culturing, bright field observation (good / medium / bad form); details: step 1 for 1 day: SB431542 5 μM or LDN193189 100 nM; day 9
[2] = tested on: human iPS cells (1231A3 strain); experiment: Immunostaining of aggregate sections for neural tissue markers Nestin, TuJ1, PSA-NCAM
Excerpt: Furthermore, cell aggregates on day 23 after the start of suspension culturing, which were produced from the above iPS cells that underwent a preconditioning treatment as a starting material (conditions of FIG. 5B) were fixed with 4% para-formaldehyde to prepare frozen sections. […] Furthermore, it could be confirmed from the analysis of serial sections, that the regions that could be determined to be neural tissue by morphology observation in the bright field under an inverted microscope were Nestin-positive, TuJ1-positive, and PSA-NCAM-positive (FIG. 5C-E).
Furthermore, the above cell aggregates on day 23 after the start of suspension culturing, which were produced from the above iPS cells that underwent a preconditioning treatment with TGFβR inhibitor (SB431542) or BMPR inhibitor (LDN193189) as a starting material were fixed with 4% para-formaldehyde to prepare frozen sections. […] Furthermore, it could be confirmed from the analysis of serial sections, that the regions that could be identified to be neural tissue by morphology observation in the bright field images were Nestin-positive, TuJ1-positive, and PSA-NCAM-positive (FIG. 8A-F).
Cell aggregates were prepared according to the method described in Example 10 by using, as a starting material, human iPS cells using Essential 8 medium as a feeder-free culturing, TGFβR inhibiting substance (SB431542) in step 1, and a Shh signal transduction pathway activating substance in step 2. The cell aggregates on day 18 after the start of suspension culturing were fixed with 4% para-formaldehyde to prepare frozen section. […] Furthermore, it could be confirmed from the analysis of serial sections, that the regions that could be identified to be neural tissue by morphology observation in the bright field images were Nestin-positive, TuJ1-positive, and PSA-NCAM-positive (FIG. 11).

[3] = tested on: human iPS cells (1231A3 strain); experiment: Immunostaining of aggregate sections for retinal tissue markers Chx10, Rx
Experimental: Here, as step 3, culturing was performed under the following condition 1 and condition 2: Under condition 1(+BMP), on day 6 after the start of suspension culturing, the medium was changed to a medium free of Y27632 and containing human recombinant BMP4 (manufactured by R&D) such that the final concentration of exogenous human recombinant BMP4 was 1.5 nM (55 ng/ml) (FIG. 6B, D). Under condition 2(−BMP), on day 6 after the start of suspension culturing, a half amount of the medium was changed to a medium free of Y27632 and free of a BMP signal transduction pathway activating substance, without adding exogenous human recombinant BMP4 (FIG. 6A, C).
The thus-prepared cell aggregates on day 23 after the start of suspension culturing, which were produced from the above iPS cells that underwent a preconditioning treatment in step 1 as a starting material were fixed with 4% para-formaldehyde to prepare frozen sections. These frozen sections were immunostained for Chx10 (anti-Chx10 antibody, Exalpha, sheep), which is one of the retinal tissue markers, or Rx (anti-Rx antibody, Takara, guinea pig), which is one of the retinal tissue markers. These immunostained sections were observed under an inverted fluorescence microscope.
Cell aggregate were prepared according to the method described in Example 8 under conditions in which human iPS cells using StemFit medium as a feeder-free medium were used as a starting material, TGFβR inhibiting substance (SB431542) or BMPR inhibiting substance (LDN193189) was used in step 1, Shh signal transduction pathway activating substance was used in step 2, and BMP signal transduction pathway activating substance was added or not added in step 3. Neural tissues were formed in all the aggregates formed under all these conditions on day 23 after the start of suspension culturing. The above cell aggregates were fixed with 4% para-formaldehyde to prepare frozen sections. These frozen sections were immunostained for Chx10 (anti-Chx10 antibody, Exalpha, sheep), which is one of the retinal tissue markers, or Rx (anti-Rx antibody, Takara, guinea pig), which is one of the retinal tissue markers. These immunostained sections were observed under an fluorescence microscope. […] Furthermore, it was found from the analysis of serial sections that, in a neural tissue having a high (not less than 95%) proportion of Chx10-positive cells, Rx is also strongly positive (FIG. 9B, D, F, H).
Cell aggregates were prepared according to the method described in Example 10 by using, as a starting material, human iPS cells using Essential 8 medium as a feeder-free culturing, under conditions that TGFβR inhibiting substance (SB431542) are used in step 1, a Shh signal transduction pathway activating substance are used in step 2, and a BMP signal transduction pathway activating substance are added or are not added in step 3. The cell aggregates on day 18 after the start of suspension culturing were each fixed with 4% para-formaldehyde to prepare frozen section. These frozen sections were immunostained for Chx10 (anti-Chx10 antibody, Exalpha, sheep), which is one of the retinal tissue markers, or Rx (anti-Rx antibody, Takara, guinea pig), which is one of the retinal tissue markers, and observed under a fluorescence microscope. […] Furthermore, it was found from the analysis of serial sections that, in a neural tissue having a high (not less than 95%) proportion of Chx10-positive cells, Rx is also strongly positive. […]
A Cell aggregate was formed on day 18 after the start of suspension culturing under every conditions, and a neural tissue was formed (FIG. 14, upper panel). The above cell aggregates on day 18 after the start of suspension culturing were each fixed with 4% para-formaldehyde to prepare frozen section. […]

[4] = LDN193189 100 nM in step 1, no SAG in step 2, StemFit, day 23
[5] = SB431542 5 μM or LDN193189 100 nM in step 1, SAG 300 nM in step 2, StemFit, day 23
[6] = LDN193189 100 nM in step 1, no SAG in step 2, BMP4 1.5 nM on day 6 in step 3, day 23
[7] = LDN193189 100 nM in step 1, no SAG in step 2, without BMP4 in step 3, day 23
[8] = SB431542 or LDN193189 in step 1, SAG 300 nM in step 2, BMP4 1.5 nM in step 3, StemFit, day 23
[9] = Essential 8 medium, SB431542 in step 1, SAG in step 2, day 18
[10] = Essential 8 medium, SB431542 in step 1, SAG in step 2, addition of BMP4 in step 3, day 18
[11] = Essential 8 medium, SB431542 in step 1, SAG in step 2, no addition of BMP4 in step 3, day 18

**Q.** Which results are given for `c1ccc2c(-c3cnn4cc(-c5ccc(N6CCNCC6)cc5)cnc34)ccnc2c1` [LDN193189, 4-[6-(4-piperazin-1-ylphenyl)pyrazolo[1,5-a]pyrimidin-3-yl]quinoline]?
**A.** shape of cell aggregate in step 3 compared with untreated group [1]: good shape of a cell aggregate; proportion of Nestin-positive cells in the total cells [2, 4]: about 20%; proportion of PSA-NCAM-positive cells in the total cells [2, 4]: about 70%; proportion of TuJ1-positive cells in the total cells [2, 4]: about 70%; proportion of Nestin-positive cells in the total cells [2, 5]: about 20%; proportion of PSA-NCAM-positive cells [2, 5]: about 70%; proportion of TuJ1-positive cells in the total cells [2, 5]: about 70%; proportion of Chx10-positive cells in the total cells [3, 6]: about 60%; proportion of Rx-positive cells in the total cells [3, 6]: about 60%; Rx-strong positive (corresponding to retina) [3, 7]: less than 3%; Rx-weak positive (corresponding to neural tissue other than retina) [3, 7]: less than 7%; proportion of Chx10-positive cells [3, 7]: less than 3%; proportion of Rx-positive cells in the total cells [3, 7]: less than 10%; proportion of Chx10-positive cells in the total cells [3, 8]: ≥ 40%; proportion of Rx-positive cells in the total cells [3, 8]: ≥ 50%

**Q.** `CNC1CCC(N(Cc2cccc(-c3ccncc3)c2)C(=O)c2sc3ccccc3c2Cl)CC1` (stereo not shown) [SAG] was tested. Which “proportion of Chx10-positive cells in the total cells” value ([3]; A83-01 0.5 μM and SAG 300 nM in step 1, substance added in step 2 (SAG 30 nM, Purmorphamine 0.2 μM or human recombinant Shh 300 ng/ml), BMP4 1.5 nM on day 3, day 20) did it give?
**A.** Its value is “about 90%”.

**Q.** `NC(=O)c1ccc(-c2nc(-c3ccc4c(c3)OCO4)c(-c3ccccn3)[nH]2)cc1` [SB431542, 4-(5-benzol[1,3]dioxol-5-yl-4-pyridin-2-yl-1H-imidazol-2-yl)-benzamide] was tested. Which “shape of cell aggregate in step 3 compared with untreated group” value [1] did it give?
**A.** The value was “good shape of cell aggregate”.

**Q.** And the “proportion of Nestin-positive cells in the total cells” value [2, 9]?
**A.** The value was “about 30%”.

**Q.** What about the “proportion of PSA-NCAM-positive cells” value [2, 9] of the same compound?
**A.** The value was “about 70%”.

**Q.** And the “proportion of TuJ1-positive cells in the total cells” value [2, 9]?
**A.** Its value is “about 70%”.

**Q.** And the “proportion of Nestin-positive cells in the total cells” value [2, 5]?
**A.** Its value is “about 20%”.

**Q.** And the “proportion of PSA-NCAM-positive cells” value [2, 5]?
**A.** The value was “about 70%”.

**Q.** And the “proportion of TuJ1-positive cells in the total cells” value [2, 5]?
**A.** Its value is “about 70%”.

**Q.** And the “proportion of Chx10-positive cells in the total cells” value [3, 10]?
**A.** Its value is ≥ 20%.

**Q.** And the “proportion of Rx-strong positive cells in the total cells” value [3, 10]?
**A.** Its value is ≥ 30%.

**Q.** And the “Rx-strong positive (corresponding to retina)” value [3, 11]?
**A.** The value was “less than 3%”.

**Q.** And the “Rx-weak positive (corresponding to neural tissue other than retina)” value [3, 11]?
**A.** The value was “less than 7%”.

**Q.** And the “proportion of Chx10-positive cells” value [3, 11]?
**A.** The value was “less than 3%”.

**Q.** What about the “proportion of Rx-positive cells in the total cells” value [3, 11] of the same compound?
**A.** The value was “less than 10%”.

**Q.** And the “proportion of Chx10-positive cells in the total cells” value [3, 8]?
**A.** The value was ≥ 70%.

**Q.** And the “proportion of Rx-positive cells in the total cells” value [3, 8]?
**A.** Its value is ≥ 80%.
